{"source": "patent EP2502917A1", "about": "“Solid state crystalline forms of 4-(2-ethyl-5-fluoro-2,3-dihydro-1H-inden-2-yl)-1H-imidazole” (Santhera Pharmaceuticals (Schweiz) AG, priority 2011, dated 2012)", "key": {"[1]": {"experiment": "Aqueous solubility by UV/Vis spectroscopy (extinction at 270 nm) of the filtered suspension", "format": "physicochemical", "details": "remaining solid is form A, aliquot diluted by a factor of 500, extinction at 270 nm", "method": "A suspension of 118 mg fipamezole hydrochloride form B in 1 mL H2O is stirred at room temperature for two days. […] An aliquot of the solution is diluted with water by a factor of 500 and analyzed by UVNis spectroscopy.\nA suspension of 97 mg fipamezole hydrochloride form B* in 0.5 mL H2O is stirred at room temperature for two days. […] An aliquot of the solution is diluted with water by a factor of 500 and analyzed by UVNis spectroscopy.\nA suspension of 110 mg fipamezole hydrochloride form D in 0.5 mL H2O is stirred at room temperature for two days. […] An aliquot of the solution is diluted with water by a factor of 500 and analyzed by UVNis spectroscopy."}, "[2]": {"experiment": "Thermodynamic stability of polymorphs (differential scanning calorimetry)", "format": "physicochemical", "details": "enantiotropic pair: form A is the low temperature form, form D the high temperature form", "method": "Both forms can be converted into each other, accordingly, forms A and D represent an enantiotropic pair of polymorphs whereby form A is the low temperature form and form D the high temperature form. Differential Scanning Calorimetry (DSC): DSC measurements were carried out on a Perkin Elmer DSC-7. The samples were placed into gold crucibles that were sealed under nitrogen. The measurements were performed with a heating rate of 10 or 20 °C min^-1 over the temperature range from -50 °C to about 200°C."}}}
{"smiles": "CCC1(c2c[nH]cn2)Cc2ccc(F)cc2C1.Cl", "note": "(stereo not shown) [form A, 4-(2-Ethyl-5-fluoro-2,3-dihydro-1H-inden-2-yl)-1H-imidazole hydrochloride]", "values": [{"measurement": "aqueous solubility", "setting": "[1]; suspension of form B* in H2O stirred at room temperature for two days", "value": "about 43 g/L"}, {"measurement": "aqueous solubility", "setting": "[1]; suspension of form D in H2O stirred at room temperature for two days", "value": "about 46 g/L"}, {"measurement": "solubility at 2 days", "setting": "[1]; water, thermodynamic from solid, suspension of form B in H2O stirred at room temperature for two days", "value": "~46", "unit": "mg/mL"}, {"measurement": "thermodynamic stability", "setting": "[2]", "value": "high thermodynamic stability"}]}
